Laboratory results published in US20230064292A1, “METHODS OF TREATING PSMA-POSITIVE CANCER USING RADIONUCLIDE THERAPY” (priority 2020, published 2023).

What was measured:
[1] = system: PSMA-expressing PC3-PIP cells; test: Cellular uptake and internalization in PSMA-expressing PC3-PIP cells; type: cell-based
Excerpt: The PSMA binding scaffold of PSMA binds irreversibly to the extracellular enzymatic domain of PSMA leading to rapid internalization by PSMA-expressing cancer cells. Tumor cell uptake of CTT1403 is ˜84% after just 2½ hours (FIG. 1), compared to less than 40% tumor cell uptake of ^177Lu-PSMA-617 (structure shown below), in PSMA-expressing PC3-PIP cells.
Given that 99% of cell bound CTT1403 is internalized, compared to just 15% of ^177Lu-PSMA-617, targeting by CTT1403 is expected to confer a significant therapeutic advantage. This greater uptake will allow treatment of smaller tumors for a longer time. Both irreversible binding and cellular internalization increases exposure of target tissue to the therapeutic agent. Greater accumulation in the target tissue will permit a lower efficacious dose and/or dosing frequency, thus reducing a patient's total clinical exposure to the radionuclide and improving the therapeutic index.

[2] = reported value; cited from earlier work
[3] = 177Lu-PSMA-617 (7.4 GBq), Violet et al; cited from earlier work
[4] = system: tumor; settings: cited from earlier work
[5] = previous dosimetry studies in patients; cited from earlier work
[6] = system: bone metastases in prostate cancer; settings: palliative treatment of bone metastases in prostate cancer; cited from earlier work
[7] = 177Lu-PSMA-617 (7.4 GBq), Violet et al

Row | Compound | cell bound agent that is internalized ([1]; PSMA-expressing PC3-PIP cells) | Tumor cell uptake ([1]; after 2½ hours, PSMA-expressing PC3-PIP cells (FIG. 1)) | half-life during the elimination phase [2] | initial half-life during the distribution phase [2] | Kidney dose, Dose Gy/GBq [3] | Kidney dose, Mean Dose for (Gy) [3] | Tumor (PSA < 50%), Dose Gy/GBq [4, 7] | Tumor (PSA < 50%), Mean Dose for (Gy) [4, 7] | Tumor (PSA ≥ 50%), Dose Gy/GBq [4, 7] | Tumor (PSA ≥ 50%), Mean Dose for (Gy) [4, 7] | tumor dose delivered that is associated with efficacy (reduction of circulating PSA) ([4]; over several cycles of therapy, published studies) | potential dose limited organs [5] | average increase in survival [6]
1 | O=C([O-])CN1CCN(CC(=O)[O-])CCN(CC(=O)NCC2CCC(C(=O)N[C@@H](Cc3ccc4ccccc4c3)C(=O)NCCCC[C@H](NC(=O)N[C@@H](CCC(=O)O)C(=O)O)C(=O)O)CC2)CCN(CC(=O)[O-])CC1.[177Lu+3] (stereo partly shown) [177Lu-PSMA-617] | 15% | less than 40% | 10.8 ± 2.5 h | 9.6 ± 5.4 min | 0.77 Gy/GBq | 3.2 Gy | 1.41 Gy/GBq | 10.4 Gy | 1.91 Gy/GBq | 14.1 Gy | 10-14 Gy | salivary glands, kidneys and bone marrow | –
2 | [Cl][223Ra][Cl] [Radium-223 chloride] | – | – | – | – | – | – | – | – | – | – | – | – | 3-4 months
